As usually defined, the % Inhibition is the drop in the measured response relative to a control, in per cent. Lower therefore signals a response near the control. The term IC50 denotes the concentration at which inhibition is half-maximal.

This assay addresses T1, endogenous renin from human plasma (Homo sapiens, UniProt P00797).
T1 construct: endogenous renin from human plasma; from tissue; host or cells: pooled human plasma (EDTA)
T1 sequence (P00797 67-406): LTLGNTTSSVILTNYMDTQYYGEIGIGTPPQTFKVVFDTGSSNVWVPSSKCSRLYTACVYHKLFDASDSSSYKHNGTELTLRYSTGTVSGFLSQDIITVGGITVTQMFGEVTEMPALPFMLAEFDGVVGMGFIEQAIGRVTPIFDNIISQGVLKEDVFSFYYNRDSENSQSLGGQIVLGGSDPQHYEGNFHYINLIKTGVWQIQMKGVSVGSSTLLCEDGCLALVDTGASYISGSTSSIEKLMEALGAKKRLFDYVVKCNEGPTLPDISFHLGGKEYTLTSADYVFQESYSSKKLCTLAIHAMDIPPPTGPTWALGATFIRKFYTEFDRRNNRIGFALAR
Kind of assay: In vitro test: inhibition of plasma renin activity (angiotensin I formation, radioimmunoassay). It is filed as biochemical. Particulars: pooled human plasma, 37° C., pH 5.6; for % Inhibition: plasma renin activity, test concentration not given; for IC50: 50% inhibition of plasma renin activity. How it is done:
The inhibitory strength of the peptides according to the invention against endogenous renin from human plasma is determined in vitro. Pooled human plasma is obtained with the addition of ethylenediamintetraacetic acid (EDTA) as an anticoagulant and stored at -20° C. The plasma renin activities (PRA) are determined as the rate of formation of angiotensin I from endogenous angiotensinogen and renin by incubation at 37° C. The reaction solution contains 150 μl of plasma, 3 μl of 6.6% strength 8-hydroxyquinoline sulphate solution, 3 μl of 10% strength dimercaprol solution and 144 μl of sodium phosphate buffer (0.2 M; 0.1% EDTA; pH 5.6) with or without the substances according to the invention in various concentrations. The angiotensin I formed per unit of time is determined using a radioimmunoassay (Sorin Biomedica, Italy). The percentage inhibition of the plasma renin activity is calculated by comparison of […]. The concentration range in which the substances claimed herein show a 50% inhibition of plasma renin activity is between 10^-4 to 10^-9 M.

Starred links: 1 amine or outer side, 2 acyl side, 3 side chain; linkers in the order of their positions; H or OH if unused. Non-standard residues stand in square brackets, D forms with d. Residues, ends and D or L forms follow the SMILES beside them. *: point of attachment. X2 = NCC(C(=O)[*:2])C(O)[C@H](CC1CCCCC1)N[*:1]; X1 = CC(C)C[C@H](N[*:1])C(O)C(CN)C(=O)[*:2]; NHCH2(2-pyridyl) = c1ccc(CN*)nc1; Boc = CC(C)(C)OC(=O)*

With `CC[C@H](C)[C@H](NC(=O)C1CN(Cc2ccccc2)OC1[C@H](Cc1ccccc1)NC(=O)[C@H](Cc1c[nH]cn1)NC(=O)[C@H](Cc1ccccc1)NC(=O)OC(C)(C)C)C(=O)OC` (some centres unmarked) [Example 31], the “% Inhibition” value was found to be 31%.
As for `CC[C@H](C)[C@H](NC(=O)C1CN(Cc2ccccc2)OC1[C@H](CC1CCCCC1)NC(=O)[C@H](Cc1c[nH]cn1)NC(=O)[C@H](Cc1ccccc1)NC(=O)OC(C)(C)C)C(=O)OC` (some centres unmarked) [Example 39], the “% Inhibition” value is recorded as 67%.
On to `CC[C@H](C)[C@H](NC(=O)C(CN)C(O)[C@H](Cc1ccccc1)NC(=O)[C@H](Cc1c[nH]cn1)NC(=O)[C@H](Cc1ccccc1)NC(=O)OC(C)(C)C)C(=O)OC` (some centres unmarked) [Example 77], for which the IC50 was determined as 11000 nM and the “% Inhibition” value was found to be 96%.
Take `CC[C@H](C)[C@H](NC(=O)C(CN)C(O)[C@H](Cc1ccccc1)NC(=O)[C@H](Cc1c[nH]cn1)NC(=O)[C@H](Cc1ccccc1)NC(=O)OC(C)(C)C)C(=O)NCc1ccccn1` (some centres unmarked) [Example 79]: the midpoint of inhibition, the IC50, lay at 2500 nM and the “% Inhibition” value was determined as 95%.
With `CC[C@H](C)[C@H](NC(=O)C(CN)C(O)[C@H](CC1CCCCC1)NC(=O)[C@H](Cc1c[nH]cn1)NC(=O)[C@H](Cc1ccccc1)NC(=O)OC(C)(C)C)C(=O)OC` (some centres unmarked) [Example 82], the IC50 came out at 1400 nM and the “% Inhibition” value is 89%.
Consider `CC[C@H](C)[C@H](NC(=O)C(CN)C(O)[C@H](CC1CCCCC1)NC(=O)[C@H](Cc1c[nH]cn1)NC(=O)[C@H](Cc1ccccc1)NC(=O)OC(C)(C)C)C(=O)NCc1ccccn1` (some centres unmarked) [Example 84], for which half-maximal inhibition (IC50) required 92 nM and the “% Inhibition” value is listed as 100%.
For `CC[C@H](C)[C@H](NC(=O)C(CN)C(O)[C@H](CC1CCCCC1)NC(=O)[C@H](Cc1c[nH]cn1)NC(=O)[C@H](Cc1ccccc1)NC(=O)[C@@H]1CCCN1C(=O)OC(C)(C)C)C(=O)NCc1ccccn1` (some centres unmarked) [Example 85] (Boc-PFH[X2]I-{NHCH2(2-pyridyl)}), in that order: 240 nM and 100%.
In the case of `CC(C)CNC(=O)C(CN)C(O)[C@H](CC1CCCCC1)NC(=O)[C@H](Cc1c[nH]cn1)NC(=O)[C@H](Cc1ccccc1)NC(=O)OC(C)(C)C` (some centres unmarked) [Example 86], it took 9000 nM to reach half-maximal inhibition (IC50) and the “% Inhibition” value was determined as 92%.
On to `CC[C@H](C)[C@H](NC(=O)C(CN)C(O)[C@H](CC(C)C)NC(=O)[C@H](Cc1c[nH]cn1)NC(=O)[C@H](Cc1ccccc1)NC(=O)OC(C)(C)C)C(=O)OC` (some centres unmarked) [Example 94], for which inhibition was half-maximal at 3700 nM (IC50) and the “% Inhibition” value amounted to 100%.
Consider `CC[C@H](C)[C@H](NC(=O)C(CN)C(O)[C@H](CC(C)C)NC(=O)[C@H](Cc1c[nH]cn1)NC(=O)[C@H](Cc1ccccc1)NC(=O)OC(C)(C)C)C(=O)NCc1ccccn1` (some centres unmarked) [Example 96], for which the IC50 stood at 1000 nM and the “% Inhibition” value stood at 100%.
In the case of `CC[C@H](C)[C@H](NC(=O)C(CN)C(O)[C@H](CC(C)C)NC(=O)[C@H](Cc1c[nH]cn1)NC(=O)[C@H](Cc1ccccc1)NC(=O)[C@@H]1CCCN1C(=O)OC(C)(C)C)C(=O)NCc1ccccn1` (some centres unmarked) [Example 97] (Boc-PFH[X1]I-{NHCH2(2-pyridyl)}), the IC50 was 22 nM and the “% Inhibition” value is listed as 100%.

For the origin of these results see patent publication US5010057A, “Renin-inhibiting peptides having an aminomethyl side chain” (Bayer Aktiengesellschaft, priority 1988, dated 1991).
